ChEMBL document CHEMBL1141190, “Synthesis and structure-activity relationships of 1,2,4-triazoles as a novel class of potent tubulin polymerization inhibitors” (Bioorg Med Chem Lett, 2005)

Experiments:
[1] = target: Tubulin; assay: Displacement of [3H]colchicine from tubulin; format: protein-complex assay, Homo sapiens
[2] = system: A-431; assay: Cell cycle arrest in A431 cells by accumulation at G2/M phase cell; format: functional, cell-based; conditions: Homo sapiens
[3] = system: A-431; assay: Cell cycle arrest in A431 cells by accumulation at G2/M phase cell at 0.1uM; format: functional; conditions: Homo sapiens
[4] = target: T1, Tubulin (Bos taurus) (UniProt Q6B856+Q862L2+Q862F3); assay: Inhibition of tubulin polymerization in bovine brain at 3.33 uM
[5] = target: T1, Tubulin (Bos taurus); conditions: at 10 µM
Description: Inhibition of tubulin polymerization in bovine brain at 10 uM

[6] = system: SNB-19; assay: Antiproliferative activity against SNB19 tumor cells by sulforhodamine B assay; format: functional; conditions: Homo sapiens
[7] = system: DU-145; assay: Antiproliferative activity against DU145 tumor cells by sulforhodamine B assay; format: functional; conditions: Homo sapiens
[8] = system: SK-OV-3; assay: Antiproliferative activity against SKOV3 tumor cells by sulforhodamine B assay; format: functional; conditions: Homo sapiens
[9] = system: NCI/ADR-RES; assay: Antiproliferative activity against NCI/ADR-RES tumor cells by sulforhodamine B assay; format: functional; conditions: Homo sapiens
[10] = system: LoVo; assay: Antiproliferative activity against LoVo tumor cells by sulforhodamine B assay; format: functional; conditions: Homo sapiens
[11] = system: A-431; assay: Antiproliferative activity against A431 tumor cells by sulforhodamine B assay; format: functional; conditions: Homo sapiens
[12] = system: DLD-1; assay: Antiproliferative activity against DLD1 tumor cells by sulforhodamine B assay; format: functional; conditions: Homo sapiens
[13] = system: NCI-H460; assay: Antiproliferative activity against NCI-H460 tumor cells by sulforhodamine B assay; format: functional; conditions: Homo sapiens
[14] = system: HCT-116; assay: Antiproliferative activity against HCT116 tumor cells by sulforhodamine B assay; format: functional; conditions: Homo sapiens
[15] = system: A498; assay: Antiproliferative activity against A498 tumor cells by sulforhodamine B assay; format: functional; conditions: Homo sapiens

SMILES: COc1cc(Nc2ncccc2-c2nnc(Nc3ccc4c(c3)OCCO4)[nH]2)cc(OC)c1
- Ki [1]: 160 nM

SMILES: COc1cc(OC)cc(Oc2cnccc2-c2n[nH]c(Nc3ccc4c(c3)OCCO4)n2)c1
- EC50 [2]: 210 nM
- inhibition at 0.1 µM [3]: 40%
- inhibition [4]: 59%

SMILES: COc1cccc(Nc2nnc(-c3cccnc3Nc3cc(OC)cc(OC)c3)[nH]2)c1
- Ki [1]: 100 nM

SMILES: COc1cc(OC)cc(Oc2ncccc2-c2n[nH]c(NCc3ccc4c(c3)OCO4)n2)c1
- inhibition at 0.1 µM [3]: 24%
- inhibition [4]: 90%

SMILES: COc1cc(O)cc(Oc2ncccc2-c2n[nH]c(Nc3ccc4c(c3)OCO4)n2)c1
- EC50 [2]: 12 nM
- inhibition at 0.1 µM [3]: 83%
- inhibition [4]: 80%

SMILES: COc1cccc(Nc2n[nH]c(-c3cccnc3Oc3cc(OC)cc(OC)c3)n2)c1
- Ki [1]: 50 nM
- inhibition [5]: 100%
- EC50 [2]: 21 nM
- inhibition at 0.1 µM [3]: 83%
- inhibition [4]: 100%

SMILES: COc1cc(OC)cc(Oc2ncncc2-c2n[nH]c(Nc3ccc4c(c3)OCCO4)n2)c1
- EC50 [2]: 44 nM
- inhibition at 0.1 µM [3]: 83%
- inhibition [4]: 69%

SMILES: COc1cc(OC)cc(Oc2ncccc2-c2n[nH]c(Nc3cccc(O)c3)n2)c1
- inhibition [5]: 100%
- EC50 [2]: 10 nM
- inhibition at 0.1 µM [3]: 86%
- inhibition [4]: 83%

SMILES: COc1ccc(C(=O)Nc2n[nH]c(-c3cccnc3Oc3cc(OC)cc(OC)c3)n2)cc1
- inhibition [4]: 8%

SMILES: c1cnc(NCc2ccncc2)c(-c2n[nH]c(Nc3ccc4c(c3)OCO4)n2)c1
- inhibition [5]: 84%
- EC50 [2]: 66 nM
- inhibition at 0.1 µM [3]: 70%

SMILES: Cc1cc(C)cc(Oc2ncccc2-c2n[nH]c(Nc3ccc4c(c3)OCO4)n2)c1
- EC50 [2]: 10 nM
- inhibition at 0.1 µM [3]: 83%
- inhibition [4]: 52%

SMILES: COc1cccc(CN(C)c2n[nH]c(-c3cccnc3Oc3cc(OC)cc(OC)c3)n2)c1
- inhibition [4]: 28%

SMILES: c1ccc(Oc2ncccc2-c2nc(Nc3ccc4c(c3)OCO4)n[nH]2)nc1
- inhibition at 0.1 µM [3]: 21%
- inhibition [4]: 43%

SMILES: COc1cc(OC)cc(Oc2ncccc2-c2nnc(Nc3ccc4c(c3)OCCO4)n2C)c1
- inhibition [4]: 30%

SMILES: COc1cccc(CNc2n[nH]c(-c3cccnc3Nc3cc(OC)cc(OC)c3)n2)c1
- inhibition [5]: 100%
- EC50 [2]: 120 nM
- inhibition at 0.1 µM [3]: 71%

SMILES: Fc1cccc(Oc2ncccc2-c2n[nH]c(Nc3ccc4c(c3)OCO4)n2)c1
- inhibition at 0.1 µM [3]: 37%
- inhibition [4]: 43%

SMILES: COc1cc(OC)cc(Oc2ncccc2-c2n[nH]c(Nc3cc(F)cc(F)c3)n2)c1
- inhibition [5]: 87%
- inhibition at 0.1 µM [3]: 27%
- inhibition [4]: 51%

SMILES: COc1cc(OC)cc(Oc2ncccc2-c2n[nH]c(Nc3ccc4c(c3)OCO4)n2)c1
- Ki [1]: 10 nM
- inhibition [5]: 98%
- EC50 [2]: 7.2 nM
- inhibition at 0.1 µM [3]: 83%
- inhibition [4]: 91%

SMILES: CN(C)c1cccc(Oc2ncccc2-c2n[nH]c(Nc3ccc4c(c3)OCO4)n2)c1
- EC50 [2]: 11 nM
- inhibition at 0.1 µM [3]: 63%
- inhibition [4]: 53%

SMILES: COc1cc(Nc2ncccc2-c2nnc(Nc3ccc4c(c3)OCCO4)n2C)cc(OC)c1
- EC50 [2]: 240 nM
- inhibition at 0.1 µM [3]: 25%
- inhibition [4]: 64%

SMILES: COc1cccc(Nc2n[nH]c(-c3cccnc3Nc3cc(OC)cc(OC)c3)n2)c1
- GI50 [6]: 150 nM
- GI50 [7]: 20 nM
- inhibition [5]: 80%
- GI50 [8]: 220 nM
- GI50 [9]: 150 nM
- GI50 [10]: 20 nM
- EC50 [2]: 90 nM
- inhibition at 0.1 µM [3]: 72%
- GI50 [11]: 50 nM
- GI50 [12]: 70 nM
- GI50 [13]: 10 nM
- GI50 [14]: 400 nM
- GI50 [15]: 60 nM

SMILES: COc1cc(OC)cc(Oc2ncccc2-c2n[nH]c(Nc3ccc(C#N)cc3)n2)c1
- inhibition [5]: 97%
- inhibition at 0.1 µM [3]: 27%
- inhibition [4]: 57%

SMILES: COc1cc(OC)cc(Oc2ncccc2-c2nc(N(C)c3cccc(OC)c3)n[nH]2)c1
- inhibition [4]: 5%

SMILES: COc1cc(Nc2ncccc2-c2n[nH]c(Nc3ccc4c(c3)OCO4)n2)cc(OC)c1
- Ki [1]: 60 nM
- inhibition [5]: 87%
- EC50 [2]: 62 nM
- inhibition at 0.1 µM [3]: 85%

SMILES: COc1cc(Nc2ccncc2-c2n[nH]c(Nc3ccc4c(c3)OCO4)n2)cc(OC)c1
- inhibition [5]: 100%
- EC50 [2]: 9.4 nM
- inhibition at 0.1 µM [3]: 84%

SMILES: COc1cc(OC)cc(Oc2ccncc2-c2n[nH]c(Nc3ccc4c(c3)OCCO4)n2)c1
- EC50 [2]: 13 nM
- inhibition at 0.1 µM [3]: 86%
- inhibition [4]: 96%

SMILES: COc1cc(OC)cc(Oc2ccccc2-c2n[nH]c(Nc3ccc4c(c3)OCCO4)n2)c1
- EC50 [2]: 6.6 nM
- inhibition at 0.1 µM [3]: 82%
- inhibition [4]: 65%

SMILES: COc1cc(Nc2n[nH]c(-c3cccnc3Oc3cc(OC)cc(OC)c3)n2)cc(OC)c1
- inhibition [5]: 99%
- EC50 [2]: 23 nM
- inhibition at 0.1 µM [3]: 87%
- inhibition [4]: 73%

SMILES: COc1cc(Nc2ncccc2-c2n[nH]c(Nc3ccccc3)n2)cc(OC)c1
- inhibition [5]: 5%
- EC50 [2]: > 10000 nM
- inhibition at 0.1 µM [3]: 22%

SMILES: COc1cc(OC)cc(Oc2ncccc2-c2n[nH]c(Nc3ccc4c(c3)OCCO4)n2)c1
- Ki [1]: 20 nM
- inhibition [5]: 100%
- EC50 [2]: 3.6 nM
- inhibition at 0.1 µM [3]: 89%
- inhibition [4]: 88%

SMILES: COc1cc(OC)cc(Oc2ncccc2-c2n[nH]c(Nc3cccnc3)n2)c1
- EC50 [2]: 66 nM
- inhibition at 0.1 µM [3]: 61%
- inhibition [4]: 49%

SMILES: COc1cc(Nc2ncccc2-c2nc(Nc3ccc4c(c3)OCCO4)n(C)n2)cc(OC)c1
- inhibition [5]: 76%
- EC50 [2]: 130 nM
- inhibition at 0.1 µM [3]: 26%

SMILES: COc1cc(Nc2nccnc2-c2n[nH]c(Nc3ccc4c(c3)OCO4)n2)cc(OC)c1
- inhibition [5]: 89%
- EC50 [2]: 17 nM
- inhibition at 0.1 µM [3]: 85%

SMILES: Fc1cc(F)cc(Oc2ncccc2-c2n[nH]c(Nc3ccc4c(c3)OCO4)n2)c1
- inhibition at 0.1 µM [3]: 23%
- inhibition [4]: 97%

SMILES: COc1cc(Oc2ncccc2-c2n[nH]c(Nc3ccc4c(c3)OCO4)n2)cc(OC)c1OC
- EC50 [2]: 16 nM
- inhibition at 0.1 µM [3]: 86%
- inhibition [4]: 89%

SMILES: COc1cc(OC)cc(Oc2ncccc2-c2n[nH]c(Nc3ccc(N(C)C)cc3)n2)c1
- inhibition [5]: 98%
- EC50 [2]: 31 nM
- inhibition at 0.1 µM [3]: 86%
- inhibition [4]: 76%

SMILES: COc1cc2c(c(OC)c1OC)-c1ccc(O)cc1[C@@H](N)CC2 [COLCHINOL]
- Ki [1]: 1850 nM
- EC50 [2]: 43.5 nM
